Reference: publication PMC8706998, “Lipid Nanocarriers-Loaded Nanocomposite as a Suitable Platform to Release Antibacterial and Antioxidant Agents for Immediate Dental Implant Placement Restorative Treatment” (Pharmaceutics, 2021)
Values joined by “and” are separate entries in the source; they are usually repeats but may differ in a detail not shown here. Equal values may be shown once.

Columns and labels:
[1] = Screening of the liquid lipids: visual evaluation of QRC dissolution (5% w/w); type: physicochemical; conditions: QRC 5% w/w (5:95)
Experimental: Labrasol®, Capryol PGMC®, Plurol®, Maisine®, Labrafil® M 1944 CS, and PEG-18 G/C were selected as liquid lipids to evaluate their ability to completely dissolve the desired amount of QRC (5% w/w). Briefly, 50 mg of QRC was added to 950 mg of each lipid. Each mixture was then ultrasonicated (Emerson Branson 1200, Branson, Brookfield, USA) for 15 min, allowing QRC powder disaggregation. Then, mixtures were maintained under magnetic stirring (200 rpm) and kept in a silicone thermostatic bath heated up to 60 °C (Heidolph MR3001K, Schwabach, Germany) for 30 min. After cooling at room temperature, samples were evaluated in terms of appearance and clearness.

[2] = QRC release study, modified transwell support with 1-octanol acceptor; type: physicochemical; conditions: QRC release from BioQ-CPX, data up to 30 h
Experimental: QRC release studies were carried out using a modified transwell permeable support (0.45 µm) filled with 5 mg of the BioQ-CPX powder and soaked with 0.2 mL of citrate buffer pH 5.5. The entire system was dipped inside a beaker filled with 8 mL of 1-octanol as a suitable acceptor fluid. […] The experiments were carried out at 37 ± 0.5 °C under constant stirring and protected by light exposure while, immediately after sampling, opportune volumes of fresh acceptor fluid were added to maintain the sink conditions. Data are reported as means ± SE (n = 6). Drug release profiles were elaborated using OriginPro 8.5 software and fitted with semi-empirical model equations. Fittings were validated by using R^2 value where a p-value of less than 0.05 was considered statistically significant.

[3] = parameters: method as in doi:10.1016/j.jfoodeng.2010.04.001; conditions: Water pH 7; cited from earlier work

O=c1c(O)c(-c2ccc(O)c(O)c2)oc2cc(O)cc(O)c12 [QRC, quercetin]
Appearance of QRC-liquid lipid mixture ([1]; Capryol PGMC): Opalescent | Appearance of QRC-liquid lipid mixture ([1]; Labrafil M 1944 CS): Opalescent | Appearance of QRC-liquid lipid mixture ([1]; Labrasol): Clear | Appearance of QRC-liquid lipid mixture ([1]; Maisine): Opalescent | Appearance of QRC-liquid lipid mixture ([1]; PEG-18 G/C): Slightly Opalescent | Appearance of QRC-liquid lipid mixture ([1]; Plurol): Opalescent | Korsmeyer-Peppas n [2]: 0.7915 | Korsmeyer-Peppas with Tlag n [2]: 0.6509 ± 0.0127 and 0.6509 | First-Order k ([2]; time in hours): 0.05179 | Korsmeyer-Peppas k ([2]; time in hours): 0.0578 | Korsmeyer-Peppas with Tlag k ([2]; time in hours): 0.0947 | Korsmeyer-Peppas with Tlag: Tlag ([2]; time in hours): 1.440 | Zero-Order k ([2]; time in hours): 0.02997 | Solubility [3]: 0.002 [52] mg/mL
